Reference: article PMC8587871, “Novel Thiosemicarbazone Derivatives: In Vitro and In Silico Evaluation as Potential MAO-B Inhibitors” (Molecules, 2021)

Assays:
hMAO-B [1] = target: T1, hMAO-B (Homo sapiens, UniProt P27338); experiment: In vitro fluorometric MAO-B inhibition assay; assay type: biochemical; settings: for inhibition at 1000 µM: 10^−3 M; for inhibition at 10 µM: 10^−5 M; for inhibition at 1 µM: 10^−6 M; for inhibition at 0.1 µM: 10^−7 M; for inhibition at 0.01 µM: 10^−8 M; for inhibition at 0.001 µM: 10^−9 M; for IC50: read-out: IC50 against MAO-B; for inhibition at 100 µM: 10^−4 M
T1 sequence (P27338 1-520): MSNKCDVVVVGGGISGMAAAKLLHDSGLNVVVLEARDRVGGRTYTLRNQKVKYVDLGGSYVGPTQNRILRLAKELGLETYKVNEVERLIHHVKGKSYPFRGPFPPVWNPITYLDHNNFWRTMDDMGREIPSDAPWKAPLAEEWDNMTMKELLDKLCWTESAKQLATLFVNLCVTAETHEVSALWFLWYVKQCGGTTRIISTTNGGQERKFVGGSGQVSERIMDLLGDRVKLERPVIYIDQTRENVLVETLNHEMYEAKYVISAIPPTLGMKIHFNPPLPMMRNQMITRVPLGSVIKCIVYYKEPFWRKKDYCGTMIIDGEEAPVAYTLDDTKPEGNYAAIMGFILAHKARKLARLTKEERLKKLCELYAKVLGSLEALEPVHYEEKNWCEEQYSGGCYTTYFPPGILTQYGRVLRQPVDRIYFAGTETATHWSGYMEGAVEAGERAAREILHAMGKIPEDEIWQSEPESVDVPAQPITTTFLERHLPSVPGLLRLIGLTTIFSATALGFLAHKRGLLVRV
Protocol: (§1) The inhibition power on MAO isoenzymes of the synthesized compounds was evaluated by using the in vitro fluorometric method declared previously by our research group.
(§2) The in vitro MAO inhibition test was performed using the available fluorometric method, and the percentages and IC50 values of obtained compounds were calculated as previously described by our research group.

hMAO-B [2] = target: T1, hMAO-B; experiment: Enzyme kinetic study (Lineweaver–Burk and secondary plots) of hMAO-B inhibition; assay type: biochemical; settings: substrate tyramine; for Type of hMAO-B inhibition: Lineweaver–Burk plots; for Ki: secondary plots, read-out: Ki (steady-state inhibition constant) for hMAO-B
Excerpt: Enzyme kinetic studies help to determine the inhibitory character of the relevant compound on the enzyme as irreversible or reversible inhibition, and to evaluate the nature of the inhibition of the relevant compound. The linear Lineweaver–Burk plots are the most commonly used method for this purpose. […] Enzyme kinetic assay was applied in the same way as previously mentioned. […] The rate curves of substrates were reported in the absence and presence of these compounds. In all cases, initial velocity measurements were collected at various substrate (tyramine) concentrations ranging from 20 µM to 0.625 µM. Thus, linear Lineweaver–Burk graphs of compounds 2b and 2h were formed as in Figure 4A and Figure 5A, respectively.
According to Lineweaver–Burk plots, reversible and irreversible inhibition type constitute two general categories. Mixed-type, uncompetitive, competitive, and non-competitive inhibition types are included in the reversible inhibition.
The same materials used in the MAO inhibition assay were used in this experiment. […] All processes were evaluated in quadruplicate. The results were analyzed with Microsoft Office Excel 2013 using Lineweaver–Burk diagrams. […] of the Lineweaver–Burk plots were replotted versus the inhibitors’ concentrations, and the Ki values were determined from the x-axis intercept as -Ki.

[3] = system: NIH/3T3 mouse embryonic fibroblast cell line; experiment: MTT cytotoxicity assay; assay type: cell-based; settings: for Cytotoxicity at effective concentration against MAO-B: MTT assay, NIH/3T3
Protocol: (§3) The NIH/3T3 mouse embryonic fibroblast cell line (ATCC® CRL-1658™, London, UK) was used for cytotoxicity assays. The incubation period of NIH/3T3 cells was based on the supplier’s recommendation. NIH/3T3 cells were seeded at 1 × 10^4 cells into each well of 96-well plates. MTT assay was carried out in accordance with the standards previously described.

MTT cytotoxicity assay = assay type: cell-based, mouse; settings: mouse, NIH/3T3 mouse embryonic fibroblast cells; MTT assay; read-out: IC50 against NIH/3T3 cells
Protocol: as §3

hMAO-A = target: T2, hMAO-A (Homo sapiens, UniProt P21397); experiment: In vitro fluorometric MAO-A inhibition assay; assay type: biochemical; settings: for inhibition at 1000 µM: 10^−3 M; for inhibition at 100 µM: 10^−4 M
T2 sequence (P21397 1-527): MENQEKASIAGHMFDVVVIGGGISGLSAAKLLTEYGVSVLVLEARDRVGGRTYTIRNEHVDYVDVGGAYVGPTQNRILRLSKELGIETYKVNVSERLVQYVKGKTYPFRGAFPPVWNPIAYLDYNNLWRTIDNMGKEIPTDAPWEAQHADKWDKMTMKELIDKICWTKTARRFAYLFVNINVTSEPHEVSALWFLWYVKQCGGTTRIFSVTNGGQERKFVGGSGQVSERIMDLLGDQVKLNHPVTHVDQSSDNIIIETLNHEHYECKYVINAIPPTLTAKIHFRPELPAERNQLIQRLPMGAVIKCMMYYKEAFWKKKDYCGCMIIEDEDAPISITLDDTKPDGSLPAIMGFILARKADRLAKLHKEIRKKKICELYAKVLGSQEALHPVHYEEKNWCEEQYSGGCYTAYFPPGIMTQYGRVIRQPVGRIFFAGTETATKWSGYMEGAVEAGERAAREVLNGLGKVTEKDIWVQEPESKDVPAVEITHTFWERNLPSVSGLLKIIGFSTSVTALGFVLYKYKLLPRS
Protocol: as §1, §2

Compound	inhibition at 1000 µM (hMAO-B [1])	inhibition at 10 µM (hMAO-B [1])	inhibition at 1 µM (hMAO-B [1])	inhibition at 0.1 µM (hMAO-B [1])	inhibition at 0.01 µM (hMAO-B [1])	inhibition at 0.001 µM (hMAO-B [1])	IC50 (hMAO-B [1])	melting point	Type of hMAO-B inhibition (hMAO-B [2])	Ki (hMAO-B [2])	inhibition at 1000 µM (hMAO-A)	inhibition at 100 µM (hMAO-A)	inhibition at 100 µM (hMAO-B [1])	Cytotoxicity at effective concentration against MAO-B [3]	IC50 (MTT cytotoxicity assay)	IC50 ([3]; Mus musculus, NIH3T3, Table 3 column 1 as headed)
S=C(NN=Cc1cc2ccccc2o1)Nc1ccccc1 [Compound 2e, 2-(Benzofuran-2-ylmethylene)-N-phenylhydrazine-1-carbothioamide]	85.5 ± 1.53%							205.2 to 206.8 °C			36.7 ± 0.91%	23.4 ± 0.832%	40.8 ± 0.827%			
S=C(NN=Cc1cc2ccccc2s1)Nc1ccccc1 [Compound 2k, 2-(Benzo[b]thiophen-2-ylmethylene)-N-phenylhydrazine-1-carbothioamide]	80.5 ± 1.48%							213.9 to 216 °C			31.1 ± 0.911%	27.9 ± 0.815%	46.7 ± 0.899%			
S=C(NN=Cc1cc2ccccc2s1)NC1CCCCC1 [Compound 2j, 2-(Benzo[b]thiophen-2-ylmethylene)-N-cyclohexylhydrazine-1-carbothioamide]	82.9 ± 1.62%							213.7 to 215.1 °C			33.7 ± 0.729%	23 ± 0.863%	43 ± 0.965%			
S=C(NN=Cc1cc2ccccc2o1)NC1CCCCC1 [Compound 2d, 2-(Benzofuran-2-ylmethylene)-N-cyclohexylhydrazine-1-carbothioamide]	82.6 ± 1.32%							191.2 to 192.9 °C			37.5 ± 0.897%	20.9 ± 0.834%	41.1 ± 0.956%			
CCNC(=S)NN=Cc1cc2ccccc2s1 [Compound 2g, 2-(Benzo[b]thiophen-2-ylmethylene)-N-ethylhydrazine-1-carbothioamide]	79 ± 1.7%							198.9 to 201 °C			38.9 ± 0.854%	28.7 ± 0.803%	44.8 ± 0.758%			
S=C(NN=Cc1cc2ccccc2o1)Nc1ccccc1Cl [Compound 2f, 2-(Benzofuran-2-ylmethylene)-N-(2-chlorophenyl)hydrazine-1-carbothioamide]	82.4 ± 1.33%							203.6 to 204.9 °C			31.1 ± 0.994%	24.2 ± 0.711%	47.4 ± 0.93%			
CCCCNC(=S)NN=Cc1cc2ccccc2s1 [Compound 2i, 2-(Benzo[b]thiophen-2-ylmethylene)-N-butylhydrazine-1-carbothioamide]	84.7 ± 1.63%							168.9 to 170.7 °C			35.7 ± 0.863%	29.2 ± 0.816%	46 ± 0.931%			

Continued, in another order:

inhibition at 1000 µM (hMAO-B [1])	inhibition at 10 µM (hMAO-B [1])	inhibition at 1 µM (hMAO-B [1])	inhibition at 0.1 µM (hMAO-B [1])	inhibition at 0.01 µM (hMAO-B [1])	inhibition at 0.001 µM (hMAO-B [1])	IC50 (hMAO-B [1])	melting point	Type of hMAO-B inhibition (hMAO-B [2])	Ki (hMAO-B [2])	inhibition at 1000 µM (hMAO-A)	inhibition at 100 µM (hMAO-A)	inhibition at 100 µM (hMAO-B [1])	Compound	Cytotoxicity at effective concentration against MAO-B [3]	IC50 (MTT cytotoxicity assay)	IC50 ([3]; Mus musculus, NIH3T3, Table 3 column 1 as headed)
90.4 ± 1.6%	80.8 ± 1.04%	72.2 ± 1.39%	65 ± 1.11%	42.8 ± 0.948%	30.9 ± 0.782%	56 ± 2 nM	164.9 to 166.2 °C	reversible and non-competitive	46 nM	36.8 ± 0.741%	21.9 ± 0.75%		COCCNC(=S)NN=Cc1cc2ccccc2s1 [Compound 2h, 2-(Benzo[b]thiophen-2-ylmethylene)-N-(2-methoxyethyl)hydrazine-1-carbothioamide]	non-cytotoxic	81300 nM	
74.2 ± 1.41%							179.9 to 182.1 °C			34.1 ± 0.927%	22.3 ± 0.824%	46.4 ± 0.997%	CCNC(=S)NN=Cc1cc2ccccc2o1 [Compound 2a, 2-(Benzofuran-2-ylmethylene)-N-ethylhydrazine-1-carbothioamide]			
91.6 ± 1.65%	81.5 ± 1.72%	75 ± 1.63%	66.4 ± 0.975%	41.5 ± 0.856%	25.8 ± 0.765%	42 ± 2 nM	147.5 to 148.8 °C	reversible and non-competitive	35 nM	33 ± 0.955%	28.4 ± 0.899%		COCCNC(=S)NN=Cc1cc2ccccc2o1 [Compound 2b, 2-(Benzofuran-2-ylmethylene)-N-(2-methoxyethyl)hydrazine-1-carbothioamide]	non-cytotoxic	130000 nM	0.042 ± 0.002 µM
83.6 ± 1.6%							212.6 to 214.4 °C			36.7 ± 0.966%	24.4 ± 0.721%	42.2 ± 0.763%	S=C(NN=Cc1cc2ccccc2s1)Nc1ccccc1Cl [Compound 2l, 2-(Benzo[b]thiophen-2-ylmethylene)-N-(2-chlorophenyl)hydrazine-1-carbothioamide]			
76.3 ± 1.62%							120.4 to 121.2 °C			30.4 ± 0.902%	26.7 ± 0.82%	43.5 ± 0.728%	CCCCNC(=S)NN=Cc1cc2ccccc2o1 [Compound 2c, 2-(Benzofuran-2-ylmethylene)-N-butylhydrazine-1-carbothioamide]			
